Values quoted from earlier work in patent US5525347A, “Composition and methods for treating performance anxiety” (Medical University of South Carolina, priority 1995, dated 1996).
Counter-ions that a name gives are not always drawn.

Assays:
[1] = system: social phobia; settings: case reports; 10-120 mg
[2] = not given; remark: listed apart in the source

Q: What does the source list for `CC(C)NCC(O)COc1cccc2ccccc12` (stereo not shown) [Propranolol Hydrochloride, 1-(Isopropylamino)-3-(1-napthyloxy)-2-propanol hydrochloride]?
A: efficacy in social phobia [1]: suggest efficacy; Solubility in chloroform (chloroform): slightly soluble; Solubility in ether (ether): practically insoluble; Solubility in alcohol (volume of alcohol for 1 g): 20 mL; Solubility in water (volume of water for 1 g): 20 mL; stability to heat ([2]; heat): stable to heat; stability in light ([2]; light): unstable in light
